This note sets out measurements from patent publication US20250295119A1, “SPHERICAL NAN[…] FROM TMGMV IMPROVE SOIL TRANSPORT OF SMALL, HYDROPHOBIC AGROCHEMICALS” (THE REGENTS OF THE UNIVERSITY OF CALIFORNIA, priority 2022, published 2025).

For assay [1], the system named is C. elegans. Kind of assay: Pluronic F127 gel burrowing assay after treatment of C. elegans in solution. In kind it is in vivo, Caenorhabditis elegans. The conditions noted are these: 10 μM ivermectin (normalized), 90 minutes incubation in solution, no soil passage. The method, then: (§1) As a final test, Applicant delivered IVN-SNPs against C. elegans (FIG. 4). Nematodes were incubated with SNPs, IVN-SNPs, and free IVN for 90 minutes in solution. In parallel, the same (IVN-)SNPs were passed through a soil column and collected before treating the C. elegans in solution. For all samples, Applicant performed a modified gel burrowing assay (FIG. 4A) by transferring the nematodes and casting them in Pluronic F127 in a well-plate^23. The surface was coated with E. coli OP-50 lysate to attract the nematodes, and the number of C. elegans which penetrated to the surface were counted. Nematode mobility was quantified based on their total track coverage using edge detection (FIGS. 4B-4D, FIG. 13, FIG. 14). The mobility was then estimated using the following equation: […]
Using the optimized Pluronic concentration of 26% w/w previously reported, Pluronic F127 solutions were stored at 4° C. to dissolve and stay soluble (Lesanpezeshki, L. et al., Scientific Reports 2019). […] After 2 hours, an 11×11 area scan at 4× magnification (Keyence BZ-X800 Fluorescence Microscope) was taken for each well. The number of nematodes on the surface were counted manually and the area fraction of their tracks was determined by edge detection and binary image transformation in ImageJ.

Assay [2] deals with C. elegans. Put plainly: Pluronic F127 gel burrowing assay with samples first passed through a 10 cm soil column. The conditions noted are these: 10 μM ivermectin, collected fractions. Format: in vivo, Caenorhabditis elegans. The method, then: as §1
Magic Topsoil (Michigan Peat) was weighed and packed into a cylindrical column fitted with miracloth at the bottom. […] The band intensity of the fractions on SDS PAGE was determined using ImageJ. […]
Using the optimized Pluronic concentration of 26% w/w previously reported, Pluronic F127 solutions were stored at 4° C. to dissolve and stay soluble (Lesanpezeshki, L. et al., Scientific Reports 2019). […] After 2 hours, an 11×11 area scan at 4× magnification (Keyence BZ-X800 Fluorescence Microscope) was taken for each well. […]

With ivermectin, in assay [1], the “reduction in surface velocity” value was 4.5 fold and the “reduction in the number of nematodes on the surface” value is 6 fold. In assay [2], the “reduction in surface velocity after passing through a soil column” value was “no reduction” and the “reduction in the number of nematodes after passing through a soil column” value is recorded as “no reduction”.
